Data from PubChem BioAssay AID1963851 (Molecular Pharmacology Branch, DTP, NCI, 2024).

Tested on: 188146-221-R-J1-PDC complex spheroid viability
Assay: Anticancer human tumor 188146-221-R-J1-PDC patient-derived colon adenocarcinoma cell line growth inhibition [POLQ]
Settings: for IC50: curve of first compound; for viability, T/C: stronger effect = lower value
In short: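 Patient-derived tumour cells were co-cultured with HUVEC and mesenchymal stem cells as multicellular spheroids at 37 °C. They were treated with POLQ inhibitors (novobiocin, ART-558, RP6685) alone or combined with other agents. Top concentrations were at or near clinical Cmax (otherwise 10 microM; SN-38 at 1 microM), decreasing in half-log steps.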

[1] = second compound 0.0316 µM, first compound 0.0316 µM
[2] = second compound 0.0316 µM, first compound 0.1 µM
[3] = second compound 0.0316 µM, first compound 0.316 µM
[4] = second compound 0.0316 µM, first compound 1 µM
[5] = second compound 0.0316 µM, first compound 3.16 µM
[6] = second compound 0.0316 µM, first compound 10 µM
[7] = second compound 0.1 µM, first compound 0.0316 µM
[8] = second compound 0.1 µM, first compound 0.1 µM
[9] = second compound 0.1 µM, first compound 0.316 µM
[10] = second compound 0.1 µM, first compound 1 µM
[11] = second compound 0.1 µM, first compound 3.16 µM
[12] = second compound 0.1 µM, first compound 10 µM
[13] = second compound 0.316 µM, first compound 0.0316 µM
[14] = second compound 0.316 µM, first compound 0.1 µM
[15] = second compound 0.316 µM, first compound 0.316 µM
[16] = second compound 0.316 µM, first compound 1 µM
[17] = second compound 0.316 µM, first compound 3.16 µM
[18] = second compound 0.316 µM, first compound 10 µM
[19] = second compound 1 µM, first compound 0.0316 µM
[20] = second compound 1 µM, first compound 0.1 µM
[21] = second compound 1 µM, first compound 0.316 µM
[22] = second compound 1 µM, first compound 1 µM
[23] = second compound 1 µM, first compound 3.16 µM
[24] = second compound 1 µM, first compound 10 µM
[25] = second compound 3.16 µM, first compound 0.0316 µM
[26] = second compound 3.16 µM, first compound 0.1 µM
[27] = second compound 3.16 µM, first compound 0.316 µM
[28] = second compound 3.16 µM, first compound 1 µM
[29] = second compound 3.16 µM, first compound 3.16 µM
[30] = second compound 3.16 µM, first compound 10 µM
[31] = second compound 10 µM, first compound 0.0316 µM
[32] = second compound 10 µM, first compound 0.1 µM
[33] = second compound 10 µM, first compound 0.316 µM
[34] = second compound 10 µM, first compound 1 µM
[35] = second compound 10 µM, first compound 3.16 µM
[36] = second compound 10 µM, first compound 10 µM
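Also: spheroids exposed to compounds for seven days.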
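For viability, T/C in this document: 100% = DMSO vehicle control viability.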

C#Cc1c(F)ccc2cc(O)cc(-c3ncc4c(N5CC6CCC(C5)N6)nc(OCC56CCCN5CC(F)C6)nc4c3F)c12 (stereo unspecified) + Cc1cccc(N(C)C(=O)C2C(O)CCN2c2nc(C)cc(C(F)(F)F)c2C#N)c1 was tested, and the IC50 (second compound 0.0316 µM) was > 10 µM, the IC50 (second compound 0.1 µM) was > 10 µM and the IC50 (second compound 0.316 µM) was > 10 µM. For the same molecule, the IC50 (second compound 1 µM) was > 10 µM, the IC50 (second compound 3.16 µM) was > 10 µM and the IC50 (second compound 10 µM) was > 10 µM. The viability, T/C [1] was 104%, the viability, T/C [2] was 105% and the viability, T/C [3] was 104%. The viability, T/C [4] was 97.9%, the viability, T/C [5] was 88.6% and the viability, T/C [6] was 90.6%. For the same molecule, the viability, T/C [7] was 101%, the viability, T/C [8] was 112% and the viability, T/C [9] was 101%. For the same molecule, the viability, T/C [10] was 95.5%, the viability, T/C [11] was 96% and the viability, T/C [12] was 92.6%. It also gave a viability, T/C [13] of 108%, a viability, T/C [14] of 106% and a viability, T/C [15] of 96.9%. It also gave a viability, T/C [16] of 85.3%, a viability, T/C [17] of 93.2% and a viability, T/C [18] of 84.1%. The viability, T/C [19] was 111%, the viability, T/C [20] was 101% and the viability, T/C [21] was 94.9%. For the same molecule, the viability, T/C [22] was 93.4%, the viability, T/C [23] was 89.8% and the viability, T/C [24] was 85.5%. It also gave a viability, T/C [25] of 99.7%, a viability, T/C [26] of 98.2% and a viability, T/C [27] of 96.8%. It also gave a viability, T/C [28] of 74.9%, a viability, T/C [29] of 95.8% and a viability, T/C [30] of 98.2%. For the same molecule, the viability, T/C [31] was 107%, the viability, T/C [32] was 75% and the viability, T/C [33] was 99.8%. The viability, T/C [34] was 90%, the viability, T/C [35] was 88.6% and the viability, T/C [36] was 78.3%.
In the case of C=CC(=O)N1CCN(c2nc(=O)n(-c3c(C)ccnc3C(C)C)c3nc(-c4c(O)cccc4F)c(F)cc23)C(C)C1 (stereo unspecified) + Cc1cccc(N(C)C(=O)C2C(O)CCN2c2nc(C)cc(C(F)(F)F)c2C#N)c1, the IC50 (second compound 0.0316 µM) is reported as > 10 µM, the IC50 (second compound 0.1 µM) is reported as > 10 µM and the IC50 (second compound 0.316 µM) is reported as > 10 µM. For the same molecule, the IC50 (second compound 1 µM) was > 10 µM, the IC50 (second compound 3.16 µM) was > 10 µM and the IC50 (second compound 10 µM) was > 10 µM. The viability, T/C [1] was 104%, the viability, T/C [2] was 103% and the viability, T/C [3] was 93%. It also gave a viability, T/C [4] of 107%, a viability, T/C [5] of 97% and a viability, T/C [6] of 83.8%. For the same molecule, the viability, T/C [7] was 108%, the viability, T/C [8] was 105% and the viability, T/C [9] was 91.9%. It also gave a viability, T/C [10] of 103%, a viability, T/C [11] of 92.8% and a viability, T/C [12] of 89%. It also gave a viability, T/C [13] of 101%, a viability, T/C [14] of 105% and a viability, T/C [15] of 103%. It also gave a viability, T/C [16] of 95.5%, a viability, T/C [17] of 85.9% and a viability, T/C [18] of 81.5%. It also gave a viability, T/C [19] of 95.6%, a viability, T/C [20] of 107% and a viability, T/C [21] of 102%. It also gave a viability, T/C [22] of 104%, a viability, T/C [23] of 84.7% and a viability, T/C [24] of 73.3%. For the same molecule, the viability, T/C [25] was 98.7%, the viability, T/C [26] was 104% and the viability, T/C [27] was 97.3%. It also gave a viability, T/C [28] of 100%, a viability, T/C [29] of 94.6% and a viability, T/C [30] of 83.4%. The viability, T/C [31] was 100%, the viability, T/C [32] was 82.3% and the viability, T/C [33] was 91.8%. For the same molecule, the viability, T/C [34] was 84.8%, the viability, T/C [35] was 92.6% and the viability, T/C [36] was 77.2%.
For CC(C)n1c(=O)n(C)c2cnc3cc(F)c(-c4ccc(OCCCN5CCCCC5)nc4)cc3c21 + Cc1cccc(N(C)C(=O)C2C(O)CCN2c2nc(C)cc(C(F)(F)F)c2C#N)c1, the IC50 (second compound 0.0316 µM) was > 10 µM, the IC50 (second compound 0.1 µM) was > 10 µM and the IC50 (second compound 0.316 µM) was > 10 µM. For the same molecule, the IC50 (second compound 1 µM) was > 10 µM, the IC50 (second compound 3.16 µM) was > 10 µM and the IC50 (second compound 10 µM) was > 10 µM. For the same molecule, the viability, T/C [1] was 110%, the viability, T/C [2] was 97.9% and the viability, T/C [3] was 100%. It also gave a viability, T/C [4] of 106%, a viability, T/C [5] of 102% and a viability, T/C [6] of 83.7%. For the same molecule, the viability, T/C [7] was 109%, the viability, T/C [8] was 98.5% and the viability, T/C [9] was 107%. The viability, T/C [10] was 113%, the viability, T/C [11] was 90.5% and the viability, T/C [12] was 89.1%. For the same molecule, the viability, T/C [13] was 108%, the viability, T/C [14] was 115% and the viability, T/C [15] was 98.7%. The viability, T/C [16] was 100%, the viability, T/C [17] was 85.4% and the viability, T/C [18] was 85.9%. The viability, T/C [19] was 111%, the viability, T/C [20] was 107% and the viability, T/C [21] was 104%. The viability, T/C [22] was 93%, the viability, T/C [23] was 88.6% and the viability, T/C [24] was 86.5%. For the same molecule, the viability, T/C [25] was 103%, the viability, T/C [26] was 104% and the viability, T/C [27] was 100%. The viability, T/C [28] was 82%, the viability, T/C [29] was 99.6% and the viability, T/C [30] was 81.8%. It also gave a viability, T/C [31] of 91.6%, a viability, T/C [32] of 85.8% and a viability, T/C [33] of 101%. It also gave a viability, T/C [34] of 97.4%, a viability, T/C [35] of 93.7% and a viability, T/C [36] of 95%.
